Measured values taken from patent US20060240048A1 (priority 2002, published 2006).
pEC50: −log10 of the molar value.

Biological target: T1, human cannabinoid CB2 receptor (Homo sapiens, UniProt P34972)
T1 construct: expressed in transfected cells; host or cells: Saccharomyces cerevisiae strain MMY23
Assay: Cannabinoid CB2 receptor agonist activity, yeast reporter assay (FDGlu fluorescence);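 on Emax: 100% equals maximal response of reference agonist HU210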
Format: cell-based
Settings: for Emax: read-out: efficacy value (Emax) at the cloned human cannabinoid CB2 receptor

T1 sequence (P34972 whole entry): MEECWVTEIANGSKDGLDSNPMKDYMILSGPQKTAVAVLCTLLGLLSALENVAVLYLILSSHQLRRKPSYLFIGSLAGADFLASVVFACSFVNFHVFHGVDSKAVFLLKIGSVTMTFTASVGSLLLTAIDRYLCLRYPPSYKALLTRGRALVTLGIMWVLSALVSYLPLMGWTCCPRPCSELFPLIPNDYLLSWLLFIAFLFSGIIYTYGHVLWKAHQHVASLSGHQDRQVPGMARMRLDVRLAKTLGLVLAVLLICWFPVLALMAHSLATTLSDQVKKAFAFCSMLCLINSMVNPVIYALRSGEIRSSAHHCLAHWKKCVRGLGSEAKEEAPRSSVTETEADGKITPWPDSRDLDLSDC

Structure (SMILES) | pEC50 | Emax [%]
CC(C)c1cc(Nc2cccc(C(F)(F)F)c2)ncc1C(=O)NCC1CCCCC1 [Example 14, N-Cyclohexylmethyl-4-isopropyl-6-(3-trifluoromethyl-phenylamino)-nicotinamide] | > 6.52 | > 50
O=C(NCC1CC1)c1cnc(Nc2cc(Cl)cc(Cl)c2)cc1C(F)(F)F [Example 152, N-Cyclopropylmethyl-6-(3,5-dichloro-phenylamino)-4-tri-fluoromethyl-nicotinamide] | > 6.52 | > 50
CC(C)c1cc(Nc2ccc(C#N)c(Br)c2)ncc1C(=O)NCC1CCOCC1 [Example 239, 6-(3-Bromo-4-cyano-phenylamino)-4-isopropyl-N-(tetrahydro-pyran-4-ylmethyl)-nicotinamide] | > 6.52 | > 50
O=C(NCC1CC1)c1cnc(Nc2cccc(Cl)c2)cc1C(F)(F)F [Example 115, N-Cyclopropylmethyl-6-(3-chlorophenylamino)-4-tri-fluoromethyl-nicotinamide] | > 6.52 | > 50
CC(C)c1cc(Nc2ccc(F)c(Cl)c2)ncc1C(=O)NCC1CCOCC1 [Example 77, 6-(3-Chloro-4-fluoro-phenylamino)-4-isopropyl-N-(tetrahydro-pyran-4-ylmethyl)-nicotinamide] | > 6.52 | > 50
O=C(NC1CCC1)c1cnc(Nc2cccc(Br)c2)cc1C(F)(F)F [Example 119, N-Cyclobutyl-6-(3-bromo-phenylamino)-4-trifluoro-methyl-nicotinamide] | > 6.52 | > 50
CC(C)c1cc(Nc2ccc(F)c(C(F)(F)F)c2)ncc1C(=O)NCC1CCOCC1 [Example 295, 6-(4-Fluoro-3-trifluoromethyl-phenylamino)-4-isopropyl-N-(tetrahydropyran-4-ylmethyl)-nicotinamide] | > 6.52 | > 50
CC(C)c1cc(Nc2cccc(Cl)c2)ncc1C(=O)NCC1CCOCC1 [Example 7, 6-(3-Chloro-phenyl-amino)-4-isopropyl-N-(tetrahydro-pyran-4-ylmethyl)-nicotinamide] | – | > 50
CC(C)c1nc(Nc2cccc(Cl)c2)ccc1C(=O)NCC1CCOCC1 [Example 208, 6-(3-Chloro-phenylamino)-2-isopropyl-N-(tetrahydro-pyran-4-ylmethyl)-nicotinamide] | > 6.52 | > 50
O=C(NCC1CC1)c1cnc(Nc2cccc(Br)c2)cc1C(F)(F)F [Example 123, N-Cyclopropylmethyl-6-(3-bromo-phenylamino)-4-tri-fluoromethyl-nicotinamide] | > 6.52 | > 50
CC(C)c1cc(Nc2ccc(F)cc2Cl)ncc1C(=O)NCC1CCC1 [Example 253, 6-(2-Chloro-4-fluoro-phenylamino)-N-cyclobutylmethyl-4-isopropyl-nicotinamide] | > 6.52 | > 50
O=C(NCC1CCC1)c1cnc(Nc2cccc(F)c2)cc1C(F)(F)F [Example 129, N-Cyclobutylmethyl-6-(3-fluoro-phenylamino)-4-tri-fluoromethyl-nicotinamide] | > 6.52 | > 50
CC(C)c1cc(Nc2ccc(C#N)c(Cl)c2)ncc1C(=O)NCC1CCOCC1 [Example 79, 6-(3-Chloro-4-cyano-phenylamino)-4-isopropyl-N-(tetrahydro-pyran-4-ylmethyl) nicotinamide] | – | > 50
CC(C)c1cc(Nc2ccc(F)c(Cl)c2)ncc1C(=O)NCC1CCC1 [Example 254, 6-(3-Chloro-4-fluoro-phenylamino)-N-cyclobutylmethyl-4-isopropyl-nicotinamide] | > 6.52 | > 50
CC(C)c1cc(Nc2ccc(C#N)cc2F)ncc1C(=O)NCC1CCC1 [Example 260, 6-(4-Cyano-2-fluoro-phenylamino)-N-cyclobutylmethyl-4-isopropyl-nicotinamide] | > 6.52 | > 50
CC(C)c1cc(Nc2cccc(Cl)c2Cl)ncc1C(=O)NCC1CCOCC1 [Example 16, 6-(2,3-Dichloro-phenylamino)-4-isopropyl-N-(tetrahydro-pyran-4-ylmethyl)-nicotinamide] | > 6.52 | > 50
CC(C)CNC(=O)c1cnc(Nc2cccc(C(F)(F)F)c2)cc1C(C)C [Example 269, N-Isobutyl-4-isopropyl-6-(3-trifluoromethyl-phenylamlno)-nicotinamide] | > 6.52 | > 50
CC(C)c1cc(Nc2ccc(C#N)cc2Cl)ncc1C(=O)NCC1CCC1 [Example 259, 6-(2-Chloro-4-cyano-phenylamino)-N-cyclobutylmethyl-4-isopropyl-nicotinamide] | > 6.52 | > 50
CC(C)CNC(=O)c1cnc(Nc2cccc(Br)c2)cc1C(C)C [Example 277, 6-(3-Bromo-phenylamino)-N-isobutyl-4-isopropyl-nicotinamide] | > 6.52 | > 50
CC(C)c1cc(Nc2ccc(Cl)cc2Cl)ncc1C(=O)NCC1CCOCC1 [Example 17, 6-(2,4-Dichloro-phenylamino)-4-isopropyl-N-(tetrahydro-pyran-4-ylmethyl)-nicotinamide] | – | > 50

Structure (SMILES) | pEC50 | Emax [%]
O=C(NCC1CCS(=O)(=O)C1)c1cnc(Nc2cccc(Cl)c2)cc1C(F)(F)F (stereo not drawn) [Example 106, 6-(3-Chloro-phenylamino)-N-(1,1-dioxo-tetrahydrothiophen-3-ylmethyl)-4-trifluoromethyl-nicotinamide] | > 6.52 | > 50
O=C(NCC1CCOCC1)c1cnc(Nc2cc(Cl)ccc2O)cc1C(F)(F)F [Example 170, N-(Tetrahydropyran-4-yl-methyl)-6-(2-hydroxy-5-chloro-phenylamino)-4-trifluoromethyl-nicotinamide] | > 6.52 | > 50
CC(C)c1cc(Nc2cccc(C(F)(F)F)c2)ncc1C(=O)NCC1CCCC1 [Example 23, N-Cyclopentylmethyl-4-isopropyl-6-(3-trifluoromethyl-phenylamino)-nicotinamide] | > 6.52 | > 50
CC(C)c1cc(Nc2ccc(C(F)(F)F)c(F)c2)ncc1C(=O)NCC1CCCC1 [Example 92, N-Cyclopentylmethyl-6-(3-fluoro-4-trifluoromethyl-phenylamino)-4-isopropyl-nicotinamide] | > 6.52 | > 50
O=C(NCC1CCCC1)c1cnc(Nc2cc(Cl)cc(Cl)c2)cc1C(F)(F)F [Example 149, N-Cyclopentylmethyl-6-(3,5-dichloro-phenylamino)-4-tri-fluoromethyl-nicotinamide] | > 6.52 | > 50
CC(C)c1cc(Nc2cc(Cl)ccc2C#N)ncc1C(=O)NCC1CCOCC1 [Example 221, 6-(S-Chloro-2-cyano-phenylamino)-4-isopropyl-N-(tetrahydro-pyran-4-ylmethyl)-nicotinamide] | 6.00 to 6.52 | < 30
CC(C)(C)c1cc(Nc2cccc(F)c2)ncc1C(=O)NCC1CCOCC1 [Example 72, 4-tert-Butyl-6-(3-fluoro-phenylamino)-N-(tetrahydro-pyran-4-ylmethyl)-nicotinamide] | > 6.52 | > 50
O=C(NCC1CCOCC1)c1cnc(Nc2cccc(Cl)c2Cl)cc1C(F)(F)F [Example 135, N-(Tetrahydropyran-4-yl-methyl)-6-(2,3-dichloro-phenylamino)-4-trifluoro-methyl-nicotinanhide] | > 6.52 | > 50
CC(C)CNC(=O)c1cnc(Nc2cc(F)cc(F)c2)cc1C(C)C [Example 275, 6-(3,5-Difluoro-phenylamino)-N-isobutyl-4-isopropyl-nicotinamide] | > 6.52 | > 50
CC(C)c1cc(Nc2ccc(C#N)c(C(F)(F)F)c2)ncc1C(=O)NCC1CCOCC1 [Example 96, 6-(4-Cyano-3-trifluoromethyl-phenylamino)-4-isopropyl-N-(tetrahydro-pyran-4-ylmethyl)-nicotinamide] | – | > 50
O=C(NCC1CCCCC1)c1cnc(Nc2ccc(Cl)cc2Cl)cc1C(F)(F)F [Example 138, N-Cyclohexylmethyl-6-(2,4-dichloro-phenylamino)-4-tri-fluoromethyl-nicotinamide] | > 6.52 | > 50
Cc1cccc(Nc2cc(C(C)C)c(C(=O)NCC3CCCC3)cn2)c1 [Example 24, N-Cyclopentylmethyl-4-isopropyl-6-m-tolylamino-nicotinamide] | > 6.52 | > 50
CC(C)c1cc(Nc2ccc(Br)c(Br)c2)ncc1C(=O)NCC1CCOCC1 [Example 296, 6-(3,4-Dibromo-phenylamino)-4-isopropyl-N-(tetrahydropyran-4-ylmethyl)-nicotinamide] | > 6.52 | > 50
CC(C)c1cc(Nc2cc(C(F)(F)F)ccc2Br)ncc1C(=O)NCC1CCOCC1 [Example 238, 6-(2-Bromo-5-trifluoromethyl-phenytamino)-4-isopropyl-N-(tetrahydro-pyran-4-ylmethyl)-nicotinamide] | > 6.52 | > 50
O=C(NCC1CCC1)c1cnc(Nc2ccc(Cl)c(Cl)c2)cc1C(F)(F)F [Example 157, N-Cyclobutylmethyl-6-(3,4-dichloro-phenylamino)-4-tri-fluoromethyl-nicotinamide] | > 6.52 | > 50
O=C(NCC1CCCCCC1)c1cnc(Nc2cc(Cl)cc(Cl)c2)cc1C(F)(F)F [Example 175, N-Cycloheptylmethyl-6-(3,5-dichloro-phenyiamino)-4-trifluoromethyl-nicotinamide] | – | > 50
CC(C)c1nc(Nc2cccc(F)c2)ccc1C(=O)NCC1CCCC1 [Example 217, 6-(3-Fluoro-phenylamino)-N-cyclopentylmethyl-2-isopropyl-nicotinamide] | > 6.52 | > 50
Cc1cc(Cl)ccc1Nc1cc(C(F)(F)F)c(C(=O)NCC2CCOCC2)cn1 [Example 172, N-(Tetrahydropyran-4-yl-methyl)-6-(2-methyl-4-chloro-phenylamino)-4-trifluoro-] | – | > 50
O=C(NC1CCC1)c1cnc(Nc2cccc(Cl)c2Cl)cc1C(F)(F)F [Example 104, 6-(2,3-Dichloro-phenylamino)-N-(cyclobutyl)-4-trifluoromethyl-nicotinamide] | > 6.52 | > 50
